Experimental data reported in patent publication US6737383B1, “Herbicidal oxadiazolidines” (priority 1999, dated 2004).

Tests used:
bedstraw = assay: Test B pre/postemergence bedstraw; type: in vivo, Galium aparine; conditions: Postemergence
In short: (§1)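 Test chemicals in a non-phytotoxic solvent mixture with surfactant were sprayed preemergence onto planted seeds and postemergence onto plants 2 to 18 cm tall (1- to 4-leaf stage). After twelve to sixteen days in a greenhouse, injury was visually rated against untreated controls from 0 (no effect) to 10 (complete control).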

blackgrass = assay: Test B pre/postemergence blackgrass; type: in vivo, Alopecurus myosuroides; conditions: for Blackgrass plant response rating: scale of 0 to 10 where 0 is no effect and 10 is complete control
In short: as §1

surinam grass = assay: Test B pre/postemergence surinam grass; type: in vivo, Brachiaria decumbens; conditions: for B. signalgrass plant response rating: scale of 0 to 10 where 0 is no effect and 10 is complete control
In short: as §1

corn = assay: Test B pre/postemergence corn; type: in vivo, Zea mays; conditions: for Corn plant response rating: scale of 0 to 10 where 0 is no effect and 10 is complete control
In short: as §1

crabgrass = assay: Test B pre/postemergence crabgrass; type: in vivo, Digitaria sanguinalis; conditions: for Crabgrass plant response rating: scale of 0 to 10 where 0 is no effect and 10 is complete control
In short: as §1

giant foxtail = assay: Test B pre/postemergence giant foxtail; type: in vivo, Setaria faberii; conditions: for Giant foxtail plant response rating: scale of 0 to 10 where 0 is no effect and 10 is complete control
In short: as §1

morningglory = assay: Test B pre/postemergence morningglory; type: in vivo, Ipomoea hederacea; conditions: for Morningglory plant response rating: scale of 0 to 10 where 0 is no effect and 10 is complete control
In short: as §1

pigweed = assay: Test B pre/postemergence pigweed; type: in vivo, Amaranthus retroflexus; conditions: for Redroot pigweed plant response rating: scale of 0 to 10 where 0 is no effect and 10 is complete control
In short: as §1

rape = assay: Test B pre/postemergence rape; type: in vivo, Brassica napus; conditions: for Rape plant response rating: scale of 0 to 10 where 0 is no effect and 10 is complete control
In short: as §1

sugar beet = assay: Test B pre/postemergence sugar beet; type: in vivo, Beta vulgaris; conditions: for Sugarbeets plant response rating: scale of 0 to 10 where 0 is no effect and 10 is complete control
In short: as §1

wheat = assay: Test B pre/postemergence wheat; type: in vivo, Triticum aestivum; conditions: for Wheat plant response rating: scale of 0 to 10 where 0 is no effect and 10 is complete control
In short: as §1

wild oat = assay: Test B pre/postemergence wild oat; type: in vivo, Avena fatua; conditions: for Wild oats plant response rating: scale of 0 to 10 where 0 is no effect and 10 is complete control
In short: as §1

purple nutsedge = assay: Test B pre/postemergence purple nutsedge; type: in vivo, Cyperus rotundus; conditions: for Nutsedge plant response rating: scale of 0 to 10 where 0 is no effect and 10 is complete control
In short: as §1

rice = assay: Test B flood test rice; type: in vivo, Oryza sativa
In short: (§2)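 Each value is a visual injury score relative to controls, with 10 meaning complete control and 0 no effect. Evaluation took place twelve to sixteen days after the 2-leaf-stage plants were treated and kept in the greenhouse.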

smallflower flatsedge = assay: Test B flood test smallflower flatsedge; type: in vivo, Cyperus difformis
In short: as §2

bamyardgrass = assay: Test B flood test barnyardgrass; type: in vivo, Echinochloa crus-galli
In short: as §2

[1] = Postemergence, Rate 125 g/ha, scale 0 to 10, 0 is no effect, 10 is complete control
[2] = Postemergence, Rate 250 g/ha, scale 0 to 10, 0 is no effect, 10 is complete control
[3] = Preemergence, Rate 62 g/ha, scale 0 to 10 (0 no effect, 10 complete control)
[4] = Rate 500 g/ha, Postemergence, scale 0 to 10, 0 no effect, 10 complete control
[5] = Rate 62 g/ha, flood test species, Pre-emergence, visual evaluation after twelve to sixteen days
[6] = Rate 125 g/ha, under heading Pre-emergence, flood test species, visual evaluation after twelve to sixteen days
[7] = Rate 250 g/ha, Pre-emergence, flood-test species, scale 0 to 10, 0 is no effect, 10 is complete control
[8] = Rate 500 g/ha, Pre-emergence, flood test species, scale 0 to 10 (0 no effect, 10 complete control)

Structure (SMILES): CC(C)N(C(=O)n1oc(=O)n(N2C(C)CCCC2C)c1=O)c1ccc(F)cc1 (centres unmarked) [Compound 382]
- Plant response rating, Bedstraw (bedstraw; Rate 250 g/ha, scale 0 to 10, 0 is no effect, 10 is complete control): 4
- Plant response rating, Bedstraw (bedstraw; Rate 500 g/ha, scale 0 to 10, 0 no effect, 10 complete control): 4
- Plant response rating, Blackgrass (blackgrass; [1]): 0
- Plant response rating, Blackgrass (blackgrass; [2]): 2
- Plant response rating, Blackgrass (blackgrass; [3]): 0
- Blackgrass plant response rating (0 to 10 scale) (blackgrass; Preemergence, Rate 125 g/ha): 1
- Blackgrass plant response rating (blackgrass; Preemergence, Rate 250 g/ha): 3
- Blackgrass plant response rating (blackgrass; Preemergence, Rate 500 g/ha): 7
- Blackgrass plant response rating (blackgrass; Rate 62 g/ha, Postemergence): 0
- Plant response rating, Blackgrass (blackgrass; [4]): 2
- Plant response rating, B. signalgrass (surinam grass; [1]): 0
- Plant response rating, B. signalgrass (surinam grass; [2]): 0
- Plant response rating, B. signalgrass (surinam grass; [3]): 0
- B. signalgrass plant response rating (0 to 10 scale, 0 is no effect, 10 is complete control) (surinam grass; Preemergence, Rate 125 g/ha): 0
- B. signalgrass plant response rating (surinam grass; Preemergence, Rate 250 g/ha): 2
- B. signalgrass plant response rating (surinam grass; Preemergence, Rate 500 g/ha): 6
- B. signalgrass plant response rating (surinam grass; Rate 62 g/ha, Postemergence): 0
- Plant response rating, B. signalgrass (surinam grass; [4]): 0
- Plant response rating, Corn (corn; [1]): 0
- Plant response rating, Corn (corn; [2]): 0
- Plant response rating, Corn (corn; [3]): 0
- Corn plant response rating (0 to 10 scale) (corn; Preemergence, Rate 125 g/ha): 0
- Corn plant response rating (corn; Preemergence, Rate 250 g/ha): 0
- Corn plant response rating (corn; Preemergence, Rate 500 g/ha): 2
- Corn plant response rating (corn; Rate 62 g/ha, Postemergence): 0
- Plant response rating, Corn (corn; [4]): 0
- Plant response rating, Crabgrass (crabgrass; [1]): 0
- Plant response rating, Crabgrass (crabgrass; [2]): 0
- Plant response rating, Crabgrass (crabgrass; [3]): 6
- Crabgrass plant response rating (0 to 10 scale) (crabgrass; Preemergence, Rate 125 g/ha): 7
- Crabgrass plant response rating (crabgrass; Preemergence, Rate 250 g/ha): 9
- Crabgrass plant response rating (crabgrass; Preemergence, Rate 500 g/ha): 10
- Crabgrass plant response rating (crabgrass; Rate 62 g/ha, Postemergence): 0
- Plant response rating, Crabgrass (crabgrass; [4]): 1
- Plant response rating, Giant foxtail (giant foxtail; [1]): 3
- Plant response rating, Giant foxtail (giant foxtail; [2]): 3
- Plant response rating, Giant foxtail (giant foxtail; [3]): 9
- Giant foxtail plant response rating (0 to 10 scale) (giant foxtail; Preemergence, Rate 125 g/ha): 9
- Giant foxtail plant response rating (giant foxtail; Preemergence, Rate 250 g/ha): 9
- Giant foxtail plant response rating (giant foxtail; Preemergence, Rate 500 g/ha): 10
- Giant foxtail plant response rating (giant foxtail; Rate 62 g/ha, Postemergence): 0
- Plant response rating, Giant foxtail (giant foxtail; [4]): 4
- Plant response rating, Morningglory (morningglory; [1]): 0
- Plant response rating, Morningglory (morningglory; [2]): 0
- Plant response rating, Morningglory (morningglory; [3]): 0
- Morningglory plant response rating (0 to 10 scale) (morningglory; Preemergence, Rate 125 g/ha): 0
- Morningglory plant response rating (morningglory; Preemergence, Rate 250 g/ha): 0
- Morningglory plant response rating (morningglory; Preemergence, Rate 500 g/ha): 0
- Morningglory plant response rating (morningglory; Rate 62 g/ha, Postemergence): 0
- Plant response rating, Morningglory (morningglory; [4]): 0
- Plant response rating, Redroot pigweed (pigweed; [1]): 0
- Plant response rating, Redroot pigweed (pigweed; [2]): 0
- Plant response rating, Redroot pigweed (pigweed; [3]): 0
- Redroot pigweed plant response rating (0 to 10 scale) (pigweed; Preemergence, Rate 125 g/ha): 0
- Redroot pigweed plant response rating (pigweed; Preemergence, Rate 250 g/ha): 0
- Redroot pigweed plant response rating (pigweed; Preemergence, Rate 500 g/ha): 0
- Redroot pigweed plant response rating (pigweed; Rate 62 g/ha, Postemergence): 0
- Plant response rating, Redroot pigweed (pigweed; [4]): 0
- Plant response rating, Rape (rape; [1]): 0
- Plant response rating, Rape (rape; [2]): 0
- Plant response rating, Rape (rape; [3]): 0
- Rape plant response rating (0 to 10 scale) (rape; Preemergence, Rate 125 g/ha): 0
- Rape plant response rating (rape; Preemergence, Rate 250 g/ha): 0
- Rape plant response rating (rape; Preemergence, Rate 500 g/ha): 0
- Rape plant response rating (rape; Rate 62 g/ha, Postemergence): 0
- Plant response rating, Rape (rape; [4]): 0
- Plant response rating, Sugarbeets (sugar beet; [1]): 0
- Plant response rating, Sugarbeets (sugar beet; [2]): 0
- Plant response rating, Sugarbeets (sugar beet; [3]): 0
- Sugarbeets plant response rating (0 to 10 scale) (sugar beet; Preemergence, Rate 125 g/ha): 0
- Sugarbeets plant response rating (sugar beet; Preemergence, Rate 250 g/ha): 0
- Sugarbeets plant response rating (sugar beet; Preemergence, Rate 500 g/ha): 0
- Sugarbeets plant response rating (sugar beet; Rate 62 g/ha, Postemergence): 0
- Plant response rating, Sugarbeets (sugar beet; [4]): 0
- Plant response rating, Wheat (wheat; [1]): 0
- Plant response rating, Wheat (wheat; [2]): 0
- Plant response rating, Wheat (wheat; [3]): 0
- Wheat plant response rating (0 to 10 scale) (wheat; Preemergence, Rate 125 g/ha): 0
- Wheat plant response rating (wheat; Preemergence, Rate 250 g/ha): 0
- Wheat plant response rating (wheat; Preemergence, Rate 500 g/ha): 0
- Wheat plant response rating (wheat; Rate 62 g/ha, Postemergence): 0
- Plant response rating, Wheat (wheat; [4]): 0
- Plant response rating, Wild oats (wild oat; [1]): 0
- Plant response rating, Wild oats (wild oat; [2]): 0
- Plant response rating, Wild oats (wild oat; [3]): 0
- Wild oats plant response rating (0 to 10 scale) (wild oat; Preemergence, Rate 125 g/ha): 0
- Wild oats plant response rating (wild oat; Preemergence, Rate 250 g/ha): 0
- Wild oats plant response rating (wild oat; Preemergence, Rate 500 g/ha): 4
- Wild oats plant response rating (wild oat; Rate 62 g/ha, Postemergence): 0
- Plant response rating, Wild oats (wild oat; [4]): 0
- Plant response rating, Nutsedge (purple nutsedge; [1]): 0
- Plant response rating, Nutsedge (purple nutsedge; [2]): 0
- Plant response rating, Nutsedge (purple nutsedge; [3]): 0
- Nutsedge plant response rating (0 to 10 scale) (purple nutsedge; Preemergence, Rate 125 g/ha): 0
- Nutsedge plant response rating (purple nutsedge; Preemergence, Rate 250 g/ha): 0
- Nutsedge plant response rating (purple nutsedge; Preemergence, Rate 500 g/ha): 0
- Nutsedge plant response rating (purple nutsedge; Rate 62 g/ha, Postemergence): 0
- Plant response rating, Nutsedge (purple nutsedge; [4]): 0
- Plant response rating, Rice (0 to 10 scale, 0 is no effect, 10 is complete control) (rice; [5]): 0
- Rice plant response rating (0 to 10 scale, 0 is no effect, 10 is complete control) (rice; [6]): 0
- Rice plant response rating (rice; [7]): 0
- Rice plant response rating (rice; [8]): 0
- Plant response rating, S. Flatsedge (0 to 10 scale, 0 is no effect, 10 is complete control) (smallflower flatsedge; [5]): 0
- S. Flatsedge plant response rating (0 to 10 scale, 0 is no effect, 10 is complete control) (smallflower flatsedge; [6]): 0
- S. Flatsedge plant response rating (smallflower flatsedge; [7]): 0
- S. Flatsedge plant response rating (smallflower flatsedge; [8]): 0
- Plant response rating, Barnyardgrass (0 to 10 scale, 0 is no effect, 10 is complete control) (bamyardgrass; [5]): 0
- Barnyardgrass plant response rating (0 to 10 scale, 0 is no effect, 10 is complete control) (bamyardgrass; [6]): 0
- Barnyardgrass plant response rating (bamyardgrass; [7]): 0
- Barnyardgrass plant response rating (bamyardgrass; [8]): 0
